Reference: patent US8470380B2, “Polyphenol extraction process” (Coressence Limited, priority 2006, dated 2013)

Legend:
[1] = (−)-Epicatechin isomerisation test (heating of an epicatechin test solution, HPLC); assay type: physicochemical; details: for Epicatechin / Epicatechin % remain: 0.688 mg/ml epicatechin solution, nitrogen-flushed sealed vial; for Other % of start / Other: calculated from 100 − (epicatechin + catechin); for Other: unit assumed; for Catechin / Catechin % of start: formed from 0.688 mg/ml epicatechin
Protocol: In order to test the possibility that epicatechin was isomerising to catechin at higher temperatures, a test solution of 0.688 mg/ml epicatechin was produced and treated as follows: 950 μl of epicatechin was transferred to an auto sampler vial, which was flushed with nitrogen and sealed. The vial was then placed in an oven at a given temperature, for a set time period. The vial was then cooled, the seal removed and 50 μl of internal standard added before analysis. Tests were carried out at 50, 75, 100 and 125° C. for 15 and 30 minutes. Tests were not carried out at 150° C. as the vials are not capable of withstanding the pressure that would be generated.

[2] = Comparison of ethanol extraction with methanol (solubility of epicatechin); assay type: physicochemical; details: ethanol compared with methanol; implied by extraction data of Table 11
Protocol: A comparative extract using 1 g of apple powder and 10 ml methanol gave a figure of 4663 mg/Kg. In order to test if the low recovery figure above was due to low solubility of epicatechin in ethanol a series of tests were performed using 10, 20 and 30:1 w/w.

## epicatechin
[1]; 50° C. 15 min
  Epicatechin: 0.643 mg/mL
  Epicatechin % remain: 93.53%
  Other % of start: 5.40%
  Other: 0.037 mg/mL
  Catechin: 0.007 mg/mL
  Catechin % of start: 1.07%
[1]; 50° C. 30 min
  Epicatechin: 0.601 mg/mL
  Epicatechin % remain: 87.40%
  Other % of start: 10.79%
  Other: 0.074 mg/mL
  Catechin: 0.012 mg/mL
  Catechin % of start: 1.81%
[1]; 75° C. 15 min
  Epicatechin: 0.550 mg/mL
  Epicatechin % remain: 79.92%
  Other % of start: 10.59%
  Other: 0.073 mg/mL
  Catechin: 0.065 mg/mL
  Catechin % of start: 9.49%
[1]; 75° C. 30 min
  Epicatechin: 0.441 mg/mL
  Epicatechin % remain: 64.07%
  Other % of start: 19.65%
  Other: 0.135 mg/mL
  Catechin: 0.112 mg/mL
  Catechin % of start: 16.28%
[1]; 100° C. 15 min
  Epicatechin: 0.254 mg/mL
  Epicatechin % remain: 36.97%
  Other % of start: 16.36%
  Other: 0.113 mg/mL
  Catechin: 0.321 mg/mL
  Catechin % of start: 46.68%
[1]; 100° C. 30 min
  Epicatechin: 0.164 mg/mL
  Epicatechin % remain: 23.88%
  Other % of start: 26.07%
  Other: 0.179 mg/mL
  Catechin: 0.344 mg/mL
  Catechin % of start: 50.05%
[1]; 125° C. 15 min
  Epicatechin: 0.156 mg/mL
  Epicatechin % remain: 22.71%
  Other % of start: 27.94%
  Other: 0.192 mg/mL
  Catechin: 0.340 mg/mL
  Catechin % of start: 49.36%
[1]; 125° C. 30 min
  Epicatechin: 0.139 mg/mL
  Epicatechin % remain: 20.27%
  Other % of start: 36.13%
  Other: 0.249 mg/mL
  Catechin: 0.300 mg/mL
  Catechin % of start: 43.60%
[1]; temperatures above 100° C.
  isomerisation of (−)-epicatechin: rapid isomerisation
[2]
  solubility of epicatechin: lower solubility in ethanol than in methanol
